Values quoted from earlier work in patent publication US20240082136A1, “TOPICAL COMPOSITION” (LILIGER LTD., priority 2021, published 2024).

Columns and labels:
cutaneous vasodilation = settings: in vivo
[1] = test system: stratum corneum / dry skin; settings: topical treatment

**Q.** For botulinum toxin A, which Cutaneous vasodilation (cutaneous vasodilation) is on record?
**A.** The Cutaneous vasodilation was “eliminates”.

**Q.** With Cl.N=C(N)NCCC[C@H](N)C(=O)O [arginine hydrochloride] as the compound, how does the “Clinical symptoms of dry skin” value [1] read?
**A.** The value was “improvement”.

**Q.** And the Skin moisture [1]?
**A.** Its Skin moisture is “increase”.

**Q.** And the “Urea in the stratum corneum” value [1]?
**A.** The value was “significantly increase”.
